Experimental data: patent US20230158124A1, “DRUG, FOOD AND APPLICATION OF ANTI-CORONAVIRUS INFECTION” (priority 2020, published 2023)

Legend:
novel coronavirus = test: In vitro inhibition of cytopathic effect caused by novel coronavirus in Vero E6 cells (CCK8); assay type: cell-based, COVID-19 novel coronavirus; details: for inhibition of cytopathic effect caused by the novel coronavirus (in words): Vero E6, summary of Table 1
TNF-α mRNA = assay type: cell-based, African green monkey; details: 350 μg/mL; virus control 3.61 ± 0.29, blank 1.01 ± 0.06
IL-6 mRNA = assay type: cell-based, African green monkey; details: 350 μg/mL; virus control 7.68 ± 0.50, blank 1.08 ± 0.07
[1] = test system: guinea pig inhaling smoke; test: Airway resistance and lung function of guinea pig inhaling smoke; assay type: in vivo; details: once daily 4 weeks
Description: A smoked model is a classic animal modeling method of chronic obstructive pulmonary disease. After inhaling smoke for a long time, the animal may suffer from increase of mucus secretion, airway obstruction, and decrease of lung function. The effect of lysozyme on the airway obstruction was evaluated by the modeling method.
Male Hartley guinea pigs with weights ranging from 400 g to 500 g were randomly divided into a blank group, a model group, a lysozyme oral administration group (200 mg/kg), a lysozyme inhalation group (2 mg/kg), a lysozyme+monoammonium glycyrrhizinate inhalation group (2 mg/kg+0.1 mg/kg), a lysozyme+monopotassium glycyrrhizinate oral administration group I (200 mg/kg+20 mg/kg), and a lysozyme+monopotassium glycyrrhizinate oral administration group II (200 mg/kg+40 mg/kg), with eight animals in each group.
The animals in each group except the blank group were exposed to cigarette smoke by using a smoke exposure system inhaled only through nose and mouth, so that the animals inhaled smoke of five cigarettes within 40 minutes every day, for 5 days every week, and for 12 consecutive weeks.
Lysozyme and monoammonium glycyrrhizinate used for inhalation administration were respectively crushed into powder with a particle size less than […]. Then lysozyme and monopotassium glycyrrhizinate used for oral administration were respectively dissolved in normal saline.
The animals in each group except the blank group and the model group were administrated once every day for 4 consecutive weeks from the 8t^h week after modeling. The inhalation groups were administrated by a mouth and nose inhalation exposure system, while the oral administration groups were administrated by oral gavage. The blank group and the model group were administrated by oral gavage with normal saline every day.
Airway resistance measurement and the measurement of force expiratory volume in 100ms(millisecond) were performed after administration.
The animals were placed in a double chamber plethysmography system, and a specific airway resistance (sRaw) was measured after the animals were quiet for 10 minutes. The animals were anesthetized by intramuscular injection of ketamine, then a catheter was inserted into the trachea, and the force expiratory volume in 100ms […] was measured by a lung function detection system.

[2] = test system: intestinal barrier dysfunction of mice induced by lipopolysaccharide; test: Intestinal permeability (serum FITC-glucan) in mice with intestinal barrier dysfunction induced by lipopolysaccharide; assay type: in vivo; details: 100 mg/kg oral gavage 30 days; model 35.06 ± 5.75, blank 9.40 ± 1.45
Description: Lipopolysaccharide could cause intestinal dysfunction of animals. The protective effects of the lysozyme and the combination containing lysozyme on the intestinal barrier dysfunction of mice induced by the lipopolysaccharide were researched in the test.
Test animals: male C57BL/6 mice with a cleaning degree, and with a weight ranging from 20 g to 25 g.
Grouping and administration of animals: the animals were randomly divided into a blank group, a model group, a lysozyme group (100 mg/kg), a lysozyme+monoammonium glycyrrhizinate group A (100 mg/kg+2 mg/kg), a lysozyme+monoammonium glycyrrhizinate group B (100 mg/kg+10 mg/kg), a lysozyme+monoammonium glycyrrhizinate group C (100 mg/kg+20 mg/kg), and a lysozyme+dipotassium glycyrrhizinate group (100 mg/kg+2 mg/kg), with eight animals in each group. Each drug group was administrated by oral gavage according to the dosage every day, while the blank group and the model group were administrated with normal saline. The administration was continuously performed for 30 days. […]
Measurement of intestinal permeability: animals of each group were administrated by oral gavage with 600 mg/kg FITC-glucan (dissolved in a phosphate buffer), and blood was taken from an eyeball after 4 hours. The content of the FITC-glucan in serum was measured by fluorescence spectrometry (with an excitation wavelength of 480 nm and an emission wavelength of 520 nm).

Occludin mRNA = test: Expression of intestinal tissue tight junction protein in LPS mice, jejunum, quantitative PCR (occludin); assay type: in vivo; details: 100 mg/kg, model 0.54 ± 0.09, blank 1.04 ± 0.12
Description: (§1) Grouping and administration of animals: the animals were randomly divided into a blank group, a model group, a lysozyme group (100 mg/kg), a lysozyme+monoammonium glycyrrhizinate group A (100 mg/kg+2 mg/kg), a lysozyme+monoammonium glycyrrhizinate group B (100 mg/kg+10 mg/kg), a lysozyme+monoammonium glycyrrhizinate group C (100 mg/kg+20 mg/kg), and a lysozyme+dipotassium glycyrrhizinate group (100 mg/kg+2 mg/kg), with eight animals in each group. Each drug group was administrated by oral gavage according to the dosage every day, while the blank group and the model group were administrated with normal saline. The administration was continuously performed for 30 days.
(§2) Modeling: after the administration, the animals of each group except the blank group were intraperitoneally injected with 15 mg/kg lipopolysaccharide, and the blank group was injected with the normal saline. The animals were fasted for 12 hours after injection.
(§3) Determination of the expression of intestinal tissue tight junction protein: after the animals were killed, the jejunum tissue sample was taken to extract RNA, and relative expression levels of […] in the tissue were detected by quantitative PCR.

Claudin-1 mRNA = test: Expression of intestinal tissue tight junction protein in LPS mice, jejunum, quantitative PCR (Claudin-1); assay type: in vivo; details: 100 mg/kg, model 0.73 ± 0.13, blank 1.07 ± 0.11
Description: as §1, §2, §3

[3] = 1,000 μg/mL, Vero E6, 100TCID50, 4 days
[4] = 2,000 μg/mL, Vero E6, 100TCID50, 4 days

Row | Molecule | Inhibition rate (%) on cytopathic effect (novel coronavirus; 350 μg/mL, Vero E6) | Inhibition rate (%) on cytopathic effect (novel coronavirus; 500 μg/mL, Vero E6, 100TCID50, 4 days) | Inhibition rate (%) on cytopathic effect (novel coronavirus; [3]) | Inhibition rate (%) on cytopathic effect (novel coronavirus; [4]) | inhibition of cytopathic effect caused by the novel coronavirus (in words) (novel coronavirus) | TNF-α mRNA Relative expression quantity (TNF-α mRNA) | IL-6 mRNA Relative expression quantity (IL-6 mRNA) | Airway resistance ([1]; inhalation, 2 mg/kg) | Force expiratory volume in 100 ms ([1]; inhalation, 2 mg/kg) | Force expiratory volume in 100 ms ([1]; oral administration, 200 mg/kg, model 4.18 ± 1.26, blank 11.86 ± 1.24) | Airway resistance ([1]; oral administration, 200 mg/kg, model 4.72 ± 0.38, blank 1.43 ± 0.24) | Content of FITC-glucan (serum) [2] | Occludin mRNA Relative expression quantity (Occludin mRNA) | Claudin-1 mRNA Relative expression quantity (Claudin-1 mRNA)
1 | Lysozyme | 6.67 ± 1.56% | 15.00 ± 8.66% | 46.67 ± 15.28% | 78.33 ± 2.89% | significantly inhibit | 3.12 ± 0.26 | 6.78 ± 0.30 | 3.10 ± 0.14 cmH2O · s | 7.68 ± 1.36 mL | 5.79 ± 2.03 mL | 3.79 ± 0.30 cmH2O · s | 27.53 ± 3.21 µg/mL | 0.69 ± 0.07 | 0.79 ± 0.16
2 | CC1(C)[C@@H](O[C@H]2O[C@H](C(=O)O)[C@@H](O)[C@H](O)[C@H]2O[C@@H]2O[C@H](C(=O)O)[C@@H](O)[C@H](O)[C@H]2O)CC[C@]2(C)[C@H]3C(=O)C=C4[C@@H]5C[C@@](C)(C(=O)O)CC[C@]5(C)CC[C@@]4(C)[C@]3(C)CC[C@@H]12.N [Monoammonium glycyrrhizinate, monoammonium glycyrrhizinate, reference compound] | – | – | 23.35 ± 5.43% | 29.42 ± 7.16% | weak inhibition effect | – | – | – | – | – | – | – | – | –
